The record followed here is PubChem BioAssay (NCI).

Experiment in all cases: DTP human tumour cell line panel, 48 h
Experiment [1] deals with HL-60(TB) leukemia.
Experiment [2] has as its system EKVX NSCLC.
For experiment [3], the system named is NCI-H23 lung.
In experiment [4] the test system is CCRF-CEM leukemia.
The test system of experiment [5] is MDA-MB-435.
Experiment [6] relates to DU-145 prostate.
The subject of experiment [7] is A498 renal.
In experiment [8] the test system is OVCAR-5 ovarian.
In experiment [9] the test system is ACHN renal.
The subject of experiment [10] is OVCAR-4 ovarian.

Values joined by “and” are separate entries in the source; they are usually repeats but may differ in a detail not shown here. Identical values can stand only once.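 The compound was tested at five concentrations on cells cultured in 96-well plates, with a 48-hour exposure period. GI50 = concentration required for 50% inhibition of growth. Definition used: TGI = concentration required for complete inhibition of growth.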 Where only a bound is given, the exact number is not on record here.

As usually defined, the TGI is the concentration giving total growth inhibition. A low value points to greater sensitivity of the cells. Turning to `C[C@@H](NC(C#N)c1ccco1)c1ccccc1` (some centres not stated), the TGI in [1], in [2], in [3], in experiment [4], in [5] and in experiment [6] was greater than 100 µM each time. Further, the TGI in experiment [7], in [8] and in experiment [9] was greater than 100 µM throughout.

As for `O=[N+]([O-])c1ccccc1N=Nc1c(O)[nH]c2cccc(C(F)(F)F)c12`, the TGI in experiment [1] is greater than 100 µM; in experiment [2] it was greater than 100 µM; in experiment [3], 88 µM; in [4], greater than 100 µM; in experiment [5], 40.7 µM; in experiment [6] it was greater than 100 µM. Further, the TGI in [10] is 52 µM; in [7] it was greater than 100 µM; in experiment [8], greater than 100 µM; in [9], 40.1 µM.

A word on the GI50: it is the concentration at which growth is held to half of that of the control. On to `N#CC(C#N)=C/C=C(\Cl)c1ccc(Cl)cc1`, for which the GI50 in experiment [2] is 23.8 µM; in [3], 2.66 µM; in experiment [4], 0.425 µM; in experiment [5], 2.73 µM; in [6], 11.6 µM; in experiment [10], 5.12 µM. Also, the GI50 is 20.5 µM in experiment [7], 8.78 µM in [8] and 9.96 µM in [9]. Also, the TGI in experiment [2] is 55.4 µM; in [3], 9.04 µM; in experiment [4], greater than 100 µM; in experiment [5], 10 µM; in [6], 29.7 µM; in experiment [10], 55.6 µM. The TGI in [7] turned out to be 38.6 µM; in [8], 24.5 µM; in [9], 37.2 µM.

Consider `COc1cc2c(c3c1c(=O)c1ccccc1n3C)C=CC1(CCCC1)O2`, for which the TGI in experiment [1] stood at 26.1 µM; in [2] it was 26.4 µM; in experiment [3], 28.6 µM; in experiment [4] it was 53.9 µM; in [5] it was 35 µM; in [6], 31.6 µM. Also, the TGI in experiment [10] amounted to 25.8 µM; in experiment [7], 31.9 µM; in experiment [8], 27 µM; in [9], 32.7 µM.

For `CN(C)CCNC(=O)Cn1ccc(=O)c2cc([N+](=O)[O-])ccc21`, the TGI in [1], in experiment [2], in experiment [3], in experiment [4], in experiment [5] and in experiment [6] was greater than 100 µM each time. Further, the TGI in experiment [7], in experiment [8] and in experiment [9] was greater than 100 µM throughout.

Regarding `CC(=O)c1c(C(F)(F)F)n([O-])c2ccccc2[n+]1=O`, the GI50 in [2] is 3.47 µM; in experiment [3], 1 µM; in experiment [5], 1.2 µM; in experiment [10], 0.969 µM; in [7], 1.56 µM; in experiment [8] it was 1.18 µM. The GI50 in [9] was 1.05 µM. The TGI in experiment [2] is 8.01 µM; in experiment [3] it was 2.43 µM; in experiment [5] it was 4.03 µM; in experiment [10], 3.9 µM; in experiment [7] it was 4.48 µM; in experiment [8] it was 3.67 µM. In [9], this compound returned a TGI of 12.3 µM.

Regarding `CC1CC(C)CC(C)C(O)/C(C#N)=C/C=C/CC(C2CCCC2C(=O)O)OC(=O)CC(O)C(C)C1` (configuration not stated), the GI50 in experiment [1] is 0.0166 µM; in experiment [2] it was 0.0518 µM; in experiment [3], 0.0183 µM and < 0.0105 µM; in experiment [4] it was 0.0241 µM; in experiment [5], 0.0281 µM; in experiment [6], 0.132 µM. Moreover, the GI50 in experiment [10] is 0.126 µM; in [7], 0.0152 µM; in experiment [8], 0.023 µM; in [9], 0.0326 µM. Also, the TGI is 0.0499 µM and 0.161 µM in experiment [1]; 0.384 µM and 0.465 µM in experiment [2]; 0.0919 µM and 0.0221 µM in experiment [3]; 0.0871 µM and 0.0731 µM in experiment [5]; 0.659 µM and 0.896 µM in experiment [6]; 0.51 µM and 1.89 µM in experiment [10]. The TGI was 0.0482 µM and 0.0186 µM in [7]; 0.282 µM and < 0.0365 µM in experiment [8]; 0.148 µM and 0.181 µM in experiment [9].

For `C[C@@]1(O)C2CC3CC1(c1ccccc1)CC(/C3=N/O)/C2=N\O` (some centres not stated), the TGI in [1], in experiment [2], in [3], in experiment [4], in experiment [5] and in [6] was greater than 100 µM each time. Besides, the TGI in experiment [10], in experiment [7], in [8] and in experiment [9] was greater than 100 µM in each case.

Consider `CCOc1ccccc1CCN=C1NC(=O)/C(=C/c2ccc3ncccc3c2)S1`, for which the GI50 in [1] was 0.789 µM; in experiment [3], 2.1 µM; in experiment [4] it was 1.05 µM; in experiment [5], 0.491 µM; in [6], 1.2 µM; in experiment [10] it was 1.36 µM. Further, the GI50 in experiment [7] was 0.744 µM; in experiment [8], 3.09 µM; in experiment [9] it was 1.45 µM. Further, the total growth inhibition concentration (TGI) is 2.65 µM in [1]; greater than 25 µM in experiment [3]; 7.12 µM in [4]; 1.71 µM in [5]; greater than 16.2 µM in experiment [6]; greater than 22.9 µM in experiment [10]. Also, the TGI in [7] was 12.8 µM; in [8] it was 15.8 µM; in [9], greater than 25 µM.

As to `CCSCCCSCCSCC`, the TGI in experiment [1], in experiment [2], in experiment [3], in [4], in [5] and in experiment [6] was greater than 100 µM in each case. Besides, the TGI in experiment [10] and in [8] was greater than 100 µM each time.

In the case of `CC(=O)Nc1ccc(-c2cc(C(=O)O)c3cc4ccccc4cc3n2)cc1`, the TGI in [1], in experiment [2], in experiment [3], in experiment [5], in experiment [6] and in [10] was greater than 100 µM throughout. Moreover, the TGI in experiment [7], in experiment [8] and in experiment [9] was greater than 100 µM in each case.

For `c1ccc(C2ONC3=NCCN32)cc1` (configuration not stated), the GI50 is greater than 100 µM in [2]; 66.2 µM in experiment [3]; 21.6 µM in [4]; 93.9 µM in experiment [5]; 62.1 µM in experiment [6]; greater than 100 µM in [10]. The figures for the GI50 in experiment [7], in experiment [8] and in experiment [9] were 1.97 µM, 67.9 µM and 41.9 µM, respectively. The TGI is greater than 100 µM in experiment [2]; greater than 100 µM in experiment [3]; 53.4 µM in experiment [4]; greater than 100 µM in experiment [5]; greater than 100 µM in experiment [6]; greater than 100 µM in experiment [10]. Moreover, the TGI in experiment [7] is 9.02 µM; in experiment [8], greater than 100 µM; in [9], greater than 100 µM.
